Patent EP0392976A1, “Monoclonal antibodies to tetracyclic compounds, processes for their production, and applications” (CIBA-GEIGY AG, priority 1989, dated 1990)
Where a name gives a salt, the structure may show the parent alone. Read-outs that look alike come from different tables or passages of the source.

Columns and labels:
Assay in all cases: inhibition enzyme immunoassay: inhibition of MAb binding to surface bound R-(-)-oxaprotiline-mucin conjugate
Set-up in all cases: species or system mouse
MAb 1225S93.2 = details: for IC50: read-out: IC₅₀
Description: (§1) The affinities of the monoclonal antibodies of the invention to R-(-)-oxaprotiline can for example be determined in an inhibition enzyme immunoassay according to Friguet et al. (J. Immunol. Methods 77, 305, 1985) wherein the monoclonal antibody to be tested is preincubated with R-(-)-oxaprotiline and, in a second step, exposed to a solid phase coated with an adsorbable conjugate of R-(-)-oxaprotiline, e.g. a protein conjugate. The fraction of the monoclonal antibody not engaged in immunocomplexes binds to the solid phase and is quantified by a secondary antibody-enzyme conjugate directed against the monoclonal antibody. The affinities are expressed as IC₅₀ (inhibition concentration) values, i.e. the concentration of free antigen causing a 50 % inhibition of antibody binding to the solid phase antigen.
(§2) This can be done, for example, in an inhibition enzyme immunoassay wherein the monoclonal antibodies of the invention are preincubated with any of the soluble compounds listed above and the incubation mixture is then tested in the enzyme immunoassay described above.
(§3) The conjugate solution (0.66 mg/ml) is diluted 1000-fold in coating buffer pH 9.8 (477 mg sodium carbonate, 897 mg sodium hydrogen carbonate, 60 mg sodium azide, 300 ml distilled water) and incubated in the wells of a microtitre plate for 2 days at 4°C. The wells are washed three times with PBS containing Tween 20 (Sigma, 0.1 %). Residual adsorption sites on the plate are saturated by incubation with 100 µl of PBS/Tween 20 for 1 h. 100 µl of a solution to be tested for the presence of antibodies to R-(-)-oxaprotiline are incubated in the wells for 1 h at room temperature. After washing three times with PBS/Tween 20, an alkaline phosphatase conjugated anti-mouse IgG antiserum (Sigma) is added in a 1000-fold dilution for 1 h at 37°C. The microtitre plate is washed five times with PBS/Tween 20, and the enzyme-conjugated bound antiserum developed with an alkaline phosphatase substrate consisting of disodium p-nitrophenylphosphate (1 mg/ml; Sigma) in diethanolamine buffer pH 9.8. The substrate gives a yellow coloration which is measured with a colorimeter (Titertek Multiskan) at a wave length of 405 nm after 60 min.
(§4) The assay is carried out as described in the following.
(§5) The capacity of free R-(-)-oxaprotiline and of a number of compounds which are structurally analogous to R-(-)-oxaprotiline to inhibit the binding of the monoclonal antibodies of the invention to the antigen is determined in an inhibition enzyme immunoassay essentially as described in example 3.2. The MAbs are preincubated with free R-(-)-oxaprotiline and with various structural analogues, respectively, instead of with the test compounds of example 3.2.

MAb 1228P63.1 = details: for IC50: read-out: IC₅₀
Description: as §1, §2, §3, §4, §5

MAb 1219S59.11 = details: for IC50: read-out: IC₅₀
Description: as §1, §2, §3, §4, §5

MAb 1219S78.6 = details: for IC50: read-out: IC₅₀
Description: as §1, §2, §3, §4, §5

MAb 1226S31.3 = system: MAb 1226S31.3
Description: as §1, §2, §3
The capacity of a number of therapeutic drugs some of which are used in combination with antidepressants and of biogenic amines to inhibit the binding of the monoclonal antibodies of the invention to the antigen is determined in a two-step inhibition enzyme immunoassay to establish the selectivity of the monoclonal antibodies to the tested compounds.
as §4, §5

[1] = MAb 1225S93.2, derived from IC50, compound 1 = 1
[2] = MAb 1228P63.1, derived from IC50, compound 1 = 1
[3] = MAb 1219S59.11, derived from IC50, compound 1 = 1
[4] = Mab 1226S31.3, therapeutic drugs and biogenic amines, 1 µM-150 pM, preincubated overnight, read-out: IC50

SMILES | rel. affinity (MAb 1225S93.2) | IC50 (MAb 1225S93.2; MAb 1225S93.2) | rel. affinity (MAb 1228P63.1) | IC50 (MAb 1228P63.1; MAb 1228P63.1) | rel. affinity (MAb 1219S59.11) | IC50 (MAb 1219S59.11; MAb 1219S59.11) | IC50 relative to reference compound (fold) (MAb 1219S78.6) | IC50 (MAb 1219S78.6; MAb 1219S78.6) | rel. affinity (MAb 1226S31.3) | IC50 (MAb 1226S31.3; MAb 1226S31.3, read-out: IC₅₀) | rel. affinity (MAb 1225S93.2; [1]) | rel. affinity (MAb 1228P63.1; [2]) | rel. affinity (MAb 1219S59.11; [3]) | IC50 relative to reference compound (higher = weaker binding) (MAb 1219S59.11; [3]) | IC50 relative to reference compound (fold) (MAb 1219S78.6; MAb 1219S78.6, derived from IC50, compound 1 = 1) | rel. affinity (MAb 1226S31.3; MAb 1226S31.3, derived from IC50, compound 1 = 1) | IC50 (MAb 1226S31.3; [4])
c1ccc2c(c1)C1CCC2(CC2CNCCO2)c2ccccc21 (stereo not shown) [compound 12, 2-(dibenzo[b,e]bicyclo-[2.2.2]octadienyl-1-methyl)-morpholine-hydrochloride] | 6.4 | 2.35 nM | 3.1 | 2.35 nM | 174.1 | 50.5 nM | ∼49.2 | ~15 nM | 0.3 | 2.1 nM |  |  |  |  |  |  | 
CNC[C@@H](O)CC12CCC(c3ccccc31)c1ccccc12 [compound 2, S-(+)-1-(2-hydroxy-3-methylamino-propyl)-dibenzo[b,e]bicyclo-[2.2.2]octadiene-hydrochloride] | 2.3 | 0.85 nM | 6.5 | 4.9 nM | 462.0 | 134 nM | 126.2 | 38.5 nM | ∼0.6 | ~4 nM |  |  |  |  |  |  | 
CNCC(O)CC12CCC(c3ccccc31)c1ccc(C(F)(F)F)cc12 (stereo not shown) [compound 16] | 251.4 | 93 nM | >1667 | > 1250 nM | >3448 | > 1000 nM | >3279 | > 1000 nM | >149 | > 1000 nM |  |  |  |  |  |  | 
CN1COC(CC23CCC(c4ccccc42)c2ccccc23)C1 (stereo not shown) [compound 13, 3-methyl-5-(dibenzo-[b,e]bicyclo[2.2.2]-octadienyl-1-methyl)-oxazolidine-methane-sulfonate] | 1.6 | 0.58 nM | 1.6 | 1.2 nM | 1.9 | 0.55 nM | 1.6 | 0.48 nM | 0.7 | 4.45 nM |  |  |  |  |  |  | 
CNCC(O)CC12CCC(c3ccccc31)c1ccccc12 (racemic) [compound 3, 1-(2-hydroxy-3-methyl-amino-propyl)-dibenzo-[b,e]bicyclo[2.2.2]-octadiene-hydro-chloride] | 1.3 | 0.475 nM | 2.3 | 1.72 nM | 2.6 | 0.75 nM | 1.7 | 0.515 nM | 0.5 | 3.09 nM |  |  |  |  |  |  | 
CNC[C@@H](CC12CCC(c3ccccc31)c1ccccc12)O[C@@H]1O[C@H](C(=O)O)[C@@H](O)[C@H](O)[C@H]1O [compound 4, R-(-)-1-(2-glucuronyl-3-methylamino-propyl)-dibenzo[b,e]bicyclo-[2.2.2]octadiene] | 245.9 | 91 nM | 68.0 | 51 nM | 244.8 | 71 nM | 229.5 | 70 nM | 4.1 | 27.5 nM |  |  |  |  |  |  | 
CN(C)CC(O)CC12CCC(c3ccccc31)c1ccc(Cl)cc12 (stereo not shown) [compound 15, 1-(2-hydroxy-3-dimethylamino-propyl]-10-chlorodibenzo[b,e]-bicyclo[2.2.2]-octadiene-cyclamate] | 74.3 | 27.5 nM | 16.7 | 12.5 nM | 124.1 | 36 nM | 170.5 | 52 nM | 7.5 | 50 nM |  |  |  |  |  |  | 
CNCC(CC12CCC(c3ccccc31)c1ccccc12)OC(C)=O (stereo not shown) [compound 11, 1-(2-acetoxy-3-methyl-amino-propyl)-dibenzo[b,e]bicyclo-[2.2.2]octadiene-hydrochloride-semi-hydrate] | 1.9 | 0.715 nM | 4.5 | 3.35 nM | 4.5 | 1.3 nM | 3.3 | 1 nM | 0.5 | 3.58 nM |  |  |  |  |  |  | 
CNC[C@H](CC12CCC(c3ccccc31)c1ccccc12)O[C@@H]1O[C@H](C(=O)O)[C@@H](O)[C@H](O)[C@H]1O [compound 5, S-(+)-1-(2-glucuronyl-3-methylamino-propyl)-dibenzo[b,e]bicyclo-[2.2.2]octadiene] | 429.7 | 159 nM | 562.7 | 422 nM | >3448 | > 1000 nM | >3279 | > 1000 nM | 52.7 | 353 nM |  |  |  |  |  |  | 
CNCCCC12CCC(c3ccccc31)c1ccccc12 [compound 6, 1-(3-methylamino-propyl)-dibenzo[b,e]-bicyclo[2.2.2]-octadiene-hydro-chloride] |  |  |  |  |  |  |  |  |  |  | 1.2 | 1.4 | 8.8 |  |  |  | 
CNC[C@H](O)CC12CCC(c3ccccc31)c1ccccc12 [compound 1] |  | 0.37 nM |  | 0.75 nM |  | 0.29 nM |  | 0.305 nM |  | 6.7 nM | 1 | 1 |  | 1 | 1 | 1 | 6.7 nM
NCC(O)CC12CCC(c3ccccc31)c1ccccc12 (stereo not shown) [compound 7, 1-(3-amino-2-hydroxy-propyl)-dibenzo[b,e]-bicyclo[2.2.2]-octadiene-hydro-chloride] | 2.0 | 0.75 nM | 2.2 | 1.65 nM | 368.9 | 107 nM | 249.2 | 76 nM | 0.4 | 2.38 nM |  |  |  |  |  |  | 
CN(C)CC(O)CC12CCC(c3ccccc31)c1ccc(C(F)(F)F)cc12 (stereo not shown) [compound 17] | 628.4 | 232 nM | >1667 | > 1250 nM | >3448 | > 1000 nM | >3279 | > 1000 nM | >149 | > 1000 nM |  |  |  |  |  |  | 
CNCC(O)c1ccc(O)c(O)c1 (stereo not shown) [Epinephrin, 4-[1-hydroxy-2-(methyl-amino)-ethyl]-1,2-benzene-diol] |  |  |  |  |  |  |  |  |  |  |  |  |  |  |  |  | > 1000 nM
NCCc1c[nH]cn1 [Histamine, 1H-imidazole-4-ethane-amine] |  |  |  |  |  |  |  |  |  |  |  |  |  |  |  |  | > 1000 nM
NCC(O)c1ccc(O)c(O)c1 [L-Norepinephrin, 4-[2-amino-1-hydroxy-ethyl]-1,2-benzenediol] |  |  |  |  |  |  |  |  |  |  |  |  |  |  |  |  | > 1000 nM
